Measurements published in the RepoRT retention time repository.

Assay: Waters SunFire C18, 150 × 2.1 mm, 3.5 µm, 25 °C, 0.25 mL/min, estimated dead time 1.3 min; A: water + 0.1% formic acid; B: methanol; gradient (min/%B) 0/5 30/100
Settings: stereoisomer not certain

| LC retention time | Structure (SMILES) |
| --- | --- |
| 18.2 min | CC=C1CN2CCC3=C([NH2+]c4ccccc43)C2CC1C(Cc1cn2c(c3nc4ccccc4c1-3)CC1C(C(=O)OC)=COC(C)C1C2)C(=O)OC (stereo not drawn) |
| 15.1 min | CCC12CCCN(CCc3c([nH]c4ccccc34)CC1)C2 (stereo not drawn) |
| 14.7 min | CC=C1CN2CCC34Cc5cc6c7c([nH]c6cc5OC35C2CC1C(C(=O)OC)N5c1ccccc14)CCC1(CC)CCCN(CC7)C1 (stereo not drawn) |
| 13.7 min | C=CC1CN2CCc3c([nH]c4ccccc34)C2CC1CCO (stereo not drawn) |
| 14.1 min | CCC1CN2CCc3c([nH]c4ccccc34)C2CC1CCO (stereo not drawn) |
| 16 min | CC=C1CN(C)CCC23C(=O)CC1C1COC(OC)C(=O)N(c4ccccc42)C13 (stereo not drawn) |
| 16.3 min | CC=C1CN(C)C2Cc3c(n(C)c4ccccc34)C(=O)CC1C2C(=O)OC (stereo not drawn) |
| 28.8 min | COC(=O)C1C(O)CCC2CN3CCc4c([nH]c5ccc(C)cc45)C3CC21 (stereo not drawn) |
| 22.6 min | CCC1CN(C)C2Cc3c([nH]c4ccccc34)C(c3cc4c5c([nH]c4cc3OC)C3(C(=O)OC)CC4CC(CC)C3N(CC5)C4=O)CC1C2C(=O)OC (stereo not drawn) |
| 16.6 min | CCC1CN2CCc3c([nH]c4ccccc34)C2CC1CC1NCCc2c1[nH]c1ccccc21 (stereo not drawn) |
| 16.9 min | CC=C1CN2CCC34c5cc(-c6cc7c(cc6OC)C68CCN9CC(=CC)C(CCC96N7C)C8C(=O)OC)c(OC)cc5N(C)C3C2CC1C4C(=O)OC (stereo not drawn) |
| 15.9 min | CC1OCC2C3CC(=O)C4(CCN(C)CC13)c1ccccc1NC24 (stereo not drawn) |
| 14.8 min | C=CC1CN2CCc3c([nH]c4ccccc34)C2CC1CC1c2[nH]c3ccccc3c2CCN1C (stereo not drawn) |
| 17.5 min | CC=C1CN2CCc3c4n(c5ccccc35)C(C(=O)OC)C1CC42 (stereo not drawn) |
| 14.8 min | CC=C1C[N+]2(C)CCc3c4n(c5ccccc35)C(CO)C1CC42 (stereo not drawn) |

More lines, now with the values behind:

| Structure (SMILES) | LC retention time |
| --- | --- |
| CC=C1CN2C(C3C(=O)N4c5ccccc5C56CCN7CC8=CCOC3C(C8CC75)C46)CC34c5ccccc5N5C(=O)C=CC(C1CC23)C54 (stereo not drawn) | 16.3 min |
| C=CC1C(OC2OC(CO)C(O)C(O)C2O)OC=C(C(=O)OC)C1CC1NCCc2c1[nH]c1ccccc21 (stereo not drawn) | 17 min |
| CCC1=C(CC(=O)OC)C(O)(c2nccc3c2[nH]c2ccccc23)OC1=O (stereo not drawn) | 23.2 min |
| CN1CCC23C(=O)CC4C(=CCOC5CC(=O)N(c6c(O)cccc62)C3C54)C1 (stereo not drawn) | 13.4 min |
| CCC1CC2CC3c4[nH]c5ccc(OC)cc5c4CCN(C2)C13 (stereo not drawn) | 13.6 min |
| CCC1CN2CCc3c([nH]c4ccccc34)C2CC1C(=COC)C(=O)OC (stereo not drawn) | 16.8 min |
| CCC1=C(CC(=O)OC)C(OC)(c2nccc3c2[nH]c2ccccc23)OC1=O (stereo not drawn) | 27 min |
| COc1cc2c(cc1OC)C13CCN(C)CC4=CCOC5CC(=O)N2C1C5C4CC3=O (stereo not drawn) | 13.1 min |
| COc1cc2c(cc1OC)C13CCN(C)CC45OC4COC4CC(=O)N2C1C4C5CC3=O (stereo not drawn) | 10.1 min |
| O=C1CC=C2C3CC4N(CCC45c4ccccc4N1C25)CC3=CCO (stereo not drawn) | 12.1 min |
| COC(=O)N1c2ccc(OC)cc2C23CCN4C(=O)C=CC45CCC12C3C5 (stereo not drawn) | 28.1 min |
| O=C1CC2OCC=C3CN4CCC56c7ccccc7N1C5C2C3CC46 (stereo not drawn) | 11 min |
| CCC1CC2CN3CCc4c([nH]c5ccc(OC)cc45)C(C(=O)OC)(C2)C13 (stereo not drawn) | 16.8 min |
